Assay results reported in patent publication US11028369B2, “Induced extended pluripotent stem cells, method of making and using” (Beihao Stem Cell and Regenerative Medicine Research …, priority 2015, dated 2021).
Structures can show the parent of a compound that is named as a salt.

Legend:
hEPS cells = experiment: Maintenance of hEPS cells after withdrawal or replacement of DiM or MiH; type: cell-based, human; settings: for maintenance of hEPS cells when DiM or MiH is replaced: inhibitor of the same target replaces DiM or MiH in LCDM; for maintenance of hEPS cells when DiM is replaced by MAPK signaling inhibitor: replacement of DiM
Experimental: FIGS. 4A and 4B show the profiles of H3K4me3 and H3K27me3 chromatin marks over all genes in primed hES (n=2, technical replicates) and hEPS (n=2, technical replicates) cells. The standard error of mean (SEM) across the regions is calculated and shown as a semi-transparent shade around the mean curve. FIGS. 4C-D are bar graphs showing Q-PCR analysis of selected gene expression in hEPS cells under different conditions at passage 7. DiM (((S)-(+)-Dimethindene maleate) (FIG. 4C) and MiH (Minocycline hydrochloride) (FIG. 4D) were replaced with small molecules targeting to the same targets in the LCDM [hLIF (human leukemia inhibitory factor), CHIR99021, DiM, and MiH] condition. hEPS cells were cultured under LCM condition with an added small molecule selected from: DiM (2 μM), TH(5 μM), DES(5 μM), or cultured with DMSO (dimethyl sulfoxide) respectively (FIG. 4C) or under LCD condition with an added small molecule selected from MiH, BSI-201 (5 μM), NAM (100 μM), PJ34 (N-(6-Oxo-5,6-dihydro-phenanthridin-2-yl)-N,N-dimethylacetamide. HCl) (5 μM), or DMSO (FIG. 4D). Expression values are normalized to the mean value of the LCM+DiM (FIG. 4C) and LCD+MiH (FIG. 4D) sample. LCM: human LIF+CHIR99021+MiH; LCD: human LIF+CHIR99021+DiM. Center values indicate mean. Error bars indicate s.d. (n=3, technical replicates). TH: Tripelennamine HCL; DES: Desloratadine; BSI: BSI-201; NAM: Nicotinamide. […] Expression values are normalized to the mean value of the scramble control. Center values indicate mean. Error bars indicate s.d. (n=3, technical replicates). FIG. 4F is a bar graph showing a summary of chimera assays at E12.5. […] FIG. 4G is a bar graph showing a summary of chimeric assays of single-cell injection at the 8-cell embryo stage. […] ICM & TE, embryos with the integration of mouse cells into both ICM and TE.
Human and mouse extended pluripotent stem cells were cultured in serum-free N2B27-LCDM medium in 20% O2, 5% CO2 conditions. To maintain human EPS cells in an undifferentiated state, the following criteria were used: a) avoidance of plating human EPS cells too sparsely; b) use of the proper quantity of freshly prepared MEF feeder cells; and c) not allowing human EPS cells to overgrow (for example, attain more than 90% confluence; preferably, the cells should be at less than 90% confluent). Accordingly, human and mouse EPS cells were cultured on mitomycin C-inactivated mouse embryonic fibroblast (MEF) feeder cells (3×10^4 cells per cm^2), and were passaged by single-cell trypsinization (0.05% trypsin-EDTA, Invitrogen) every 2-4 days (normally at a split ratio of 1:6 to 1:10). Passage numbers of EPS cells indicate number of passages counted after the acquirement of the extended pluripotent state. The N2B27-LCDM medium was changed every day with fresh LCDM medium.
Finally, the roles of DiM and MiH in maintaining EPS cells were investigated. […] Furthermore, similar results were obtained when MiH was replaced by the knockdown of PARP1 in hEPS cells (FIG. 4E). Importantly, both mEPS and hEPS cells still retained their ability of contributing to both TE and ICM in blastocysts under such conditions (FIG. 6C, 6D, and data not shown).

primed hES/hPS H9 cells = experiment: Screen for dome-shaped hES colony formation / TGFβ signaling-independent self-renewal; type: cell-based, human; settings: hLIF+2i + candidate with SB431542
Excerpt: Primed hES are flat colonies. By contrast, naïve human pluripotent cells are dome-shaped colonies. Therefore, any resultant human EPS cells can be morphologically distinguished from primed human pluripotent stem cells.
Positive candidates from the first screen above were further screened in order to identify small molecules that support TGFβ signaling-independent self-renewal of hES cells (Tesar, et al., Dev., 448:196-199 (2007); James, et al.,Dev., 132:1273-1282 (2005); Vallier, et al., J. Cell. Sci., 118:4495-4509 (2005)). A TGFβ inhibitor SB431542 was added to the chemical cocktail (2i+LIF+candidate) at the later stage of treatment (FIG. 1A).
Specifically, primed hES/hPS H9 cells were digested into single cells using ACCUTASE® (cell detachment solution), and seeded into a matrigel-coated 24-well plate (1×10^4 cells per well) on day 0 in conventional hES medium plus Y27632. On day 1, the conventional hES medium was replaced by the N2B27 medium supplemented with the hLIF+2i base, and candidates from the first round screen were added individually into each well. The medium was changed every two days and replaced with fresh N2B27 medium supplemented with hLIF+2i. 6 days later (i.e., on day 7), a TGF (transforming growth factor) β inhibitor, SB431542 (10 μm, Tocris), was added into wells with un-differentiated cells for another 6 days. […]

mEPS cells = experiment: Chimeric analysis of mEPS cells cultured under different conditions (injection into 8-cell embryos); type: cell-based, mouse; settings: chimeric blastocysts; for developmental potency of mEPS cells when DiM is replaced by MAPK signaling inhibitor: replacement of DiM
Experimental: FIGS. 6A and 6B show PCA of RNA-seq and microarray data from EPS cells and known pluripotent cell types. […] Data were normalized to mES cells in each study. […] Data were normalized to primed hPSCs in each study. […] Circles: RNA-seq data; triangles: microarray data. […] Parp1 knockout mEPS cells (Parp1-KO) were cultured in LCDM condition without MiH (-MiH). mEPS cells were cultured under different conditions for at least 5 passages before injection. Multiple cells were injected into 8-cell embryos, which were cultured for additional 60 hours before further analysis. […] ICM & TE, embryos with the integration of mouse cells into both ICM and TE. […] ICM & TE, embryos with the integration of mouse cells into both ICM and TE. TH: TripelennamineHCL; DES: Desloratadine; NAM: Nicotinamide. PD: PD0325901; SB: SB203580; SP: SP600125.
For injection of Tdtomato-labeled mEPS cells and conventional naïve mouse ES cells, mEPS and naïve mouse ES cells were trypsinized and microinjected in the same way as for hEPS cells except that Y27632 was not added into the suspension.
The cells used in this experiment were cultured and prepared in a way that was similar to that of the multiple-cell microinjections. The cell suspension was placed on ice for 20-30 minutes before injection. After being placed on ice, the digested single cells were used for injection within 1 hour: in other words, the whole injection process should not take more than 30 minutes. Afterward, the injected embryos are recovered for 1-2 hours in a humidified incubator with 5% CO2 at 37° C. If the cells were placed on ice for more than 1 hour, then another batch of cells was digested for the remaining injections. […] After 60 hours, the embryos were fixed and immunostained.

[1] = withdrawal of either DiM or MiH

NC(=O)c1ccc(I)c([N+](=O)[O-])c1 [BSI-201, 4-iodo-3-nitrobenzamide] was tested. Which “maintenance of hEPS cells when DiM or MiH is replaced” value (hEPS cells) did it give?
The value was “could be replaced with other inhibitors targeting the same targets for the maintenance of hEPS cells”.

How did the “maintenance of hEPS cells when DiM or MiH is replaced” value (hEPS cells) turn out when Clc1ccc2c(c1)CCc1cccnc1C2=C1CCNCC1 [Desloratadine] was run?
Its value is “could be replaced with other inhibitors targeting the same targets for the maintenance of hEPS cells”.

Which results are given for C[C@@H](C1=C(CCN(C)C)Cc2ccccc21)c1ccccn1.O=C(O)/C=C\C(=O)O [DiM, (S)-(+)-Dimethindene maleate]?
dome-shaped hES colony formation (primed hES/hPS H9 cells): support dome-shaped hES colony formation; effect of withdrawal from LCDM on hEPS cells (hEPS cells; [1]): rapid differentiation of hEPS cells within days after plating; effect of withdrawal from LCDM on developmental potency of mEPS cells (mEPS cells; [1]): significantly impaired the developmental potency of mEPS cells

NC(=O)c1cccnc1 [Nicotinamide] was tested. Which “maintenance of hEPS cells when DiM or MiH is replaced” value (hEPS cells) did it give?
Its value is “could be replaced with other inhibitors targeting the same targets for the maintenance of hEPS cells”.

With O=C(NOC[C@H](O)CO)c1ccc(F)c(F)c1Nc1ccc(I)cc1F [PD0325901] as the compound, how does the “maintenance of hEPS cells when DiM is replaced by MAPK signaling inhibitor” value (hEPS cells) read?
The value was “could not maintain hEPS cells”.

And the “developmental potency of mEPS cells when DiM is replaced by MAPK signaling inhibitor” value (mEPS cells)?
Its value is “could not preserve the developmental potency of mEPS cells”.

For C[S+]([O-])c1ccc(-c2nc(-c3ccncc3)c(-c3ccc(F)cc3)[nH]2)cc1 (centres unmarked) [SB203580], which “maintenance of hEPS cells when DiM is replaced by MAPK signaling inhibitor” value (hEPS cells) is on record?
The value was “could not maintain hEPS cells”.

What about the “developmental potency of mEPS cells when DiM is replaced by MAPK signaling inhibitor” value (mEPS cells) of the same compound?
The value was “could not preserve the developmental potency of mEPS cells”.

How did the “maintenance of hEPS cells when DiM or MiH is replaced” value (hEPS cells) turn out when CN(C)CCN(Cc1ccccc1)c1ccccn1 [TripelennamineHCL, Tripelennamine HCL] was run?
The value was “could be replaced with other inhibitors targeting the same targets for the maintenance of hEPS cells”.
